ChEMBL document CHEMBL1127540, “Three-dimensional pharmacophores from binding data” (J Med Chem, 1994)
Starred links: 1 amine or outer side, 2 acyl side, 3 side chain; linkers in the order of their positions; H or OH if unused. Non-standard residues stand in square brackets, D forms with d. Residues, ends and D or L forms follow the SMILES beside them. X6 = O=C(CC[C@@H](O)[C@H](Cc1ccccc1)N[*:1])[*:2]; X9 = O=C(CP(=O)(O)[C@H](Cc1ccccc1)N[*:1])[*:2]; X7 = NC(=O)C[C@H](N[*:1])[C@@H](O)CC(=O)[*:2]; Sta = CC(C)C[C@H](N)[C@@H](O)CC(=O)O; Lac = C[C@H](O)C(=O)O

Molecular target: Human immunodeficiency virus type 1 protease (Human immunodeficiency virus 1, UniProt Q72874)
Experiment: Binding affinity to HIV-1 protease

SMILES	Ki
COC(=O)[C@@H](NC(=O)[C@@H](NC(=O)CC[C@@H](O)[C@H](Cc1ccccc1)NC(=O)[C@H](C)NC(=O)[C@H](C)NC(=O)[C@@H](N)CO)C(C)C)C(C)C (H-SAA[X6]VV-OMe)	4.9 µM
COC(=O)[C@@H](NC(=O)[C@@H](NC(=O)CP(=O)(O)[C@H](Cc1ccccc1)NC(=O)[C@H](C)NC(=O)[C@H](C)NC(=O)[C@@H](N)CO)C(C)C)C(C)C (H-SAA[X9]VV-OMe)	4.47 µM
CC[C@H](C)[C@H](NC(=O)C[C@H](O)[C@H](CC(N)=O)NC(=O)[C@H](CCC(N)=O)NC(=O)[C@H](CO)NC(=O)[C@@H](N)C(C)C)C(=O)N[C@H](C(=O)O)C(C)C (H-VSQ[X7]IV-OH)	3.72 µM
CC(C)C[C@H](NC(=O)[C@H](C)NC(=O)C[C@H](O)[C@H](CC(C)C)NC(=O)[C@@H](NC(=O)[C@@H](NC(=O)[C@H](C)O)C(C)C)C(C)C)[C@@H](O)CC(=O)O (H-[Lac]VV[Sta]A[Sta]-OH)	19.1 µM
CC(C)[C@H](NC(=O)[C@@H](NC(=O)C1CCCN1C[C@H](Cc1ccccc1)NC(=O)[C@H](C)NC(=O)[C@H](C)NC(=O)[C@@H](N)CO)C(C)C)C(N)=O (single isomer, unassigned)	18.2 µM
CC(=O)N[C@@H](CO)C(=O)N[C@@H](CCC(N)=O)C(=O)N[C@@H](CC(N)=O)C(=O)N[C@@H](Cc1ccccc1)CN1CCC[C@@H]1C(=O)N[C@H](C(=O)N[C@H](C(N)=O)C(C)C)C(C)C (stereo in doubt; 70)	12.9 µM
CC(=O)N[C@@H](CO)C(=O)N[C@@H](CCC(N)=O)C(=O)N[C@@H](CC(N)=O)C(=O)N[C@@H](Cc1ccccc1)CN1CCC[C@@H]1C(=O)N[C@H](C(=O)N[C@H](C(N)=O)C(C)C)C(C)C (stereo in doubt; 71)	14.1 µM
CC(C)CC(=O)N[C@H](C(=O)N[C@H](C(=O)N[C@@H](CC(C)C)[C@@H](O)CC(=O)N[C@@H](C)C(=O)N[C@@H](CC(C)C)[C@@H](O)CC(=O)O)C(C)C)C(C)C [PEPSTATIN]	0.017 µM

The next lines start with the values.

Ki	SMILES
0.00269 µM	CC(C)[C@H](NC(=O)OCc1ccccc1)C(=O)N[C@@H](Cc1ccccc1)C(=O)C(F)(F)CCc1ccccc1 (stereo in doubt; 12)
0.00501 µM	CC(C)[C@H](NC(=O)OCc1ccccc1)C(=O)N[C@@H](Cc1ccccc1)C(=O)C(F)(F)CCc1ccccc1 (stereo in doubt; 17)
17 µM	CC(C)(C)OC(=O)N[C@@H](Cc1ccccc1)[C@@H](O)C(=O)N[C@@H](CCC(=O)O)C(=O)N[C@@H](Cc1ccccc1)C(=O)O (stereo in doubt; 72)
24 µM	CC(C)(C)OC(=O)N[C@@H](Cc1ccccc1)[C@@H](O)C(=O)N[C@@H](CCC(=O)O)C(=O)N[C@@H](Cc1ccccc1)C(=O)O (stereo in doubt; 76)
